Our source for the IC50 values is patent publication US20120083501A1, “COMPOUNDS FOR TREATING NEURODEGENERATIVE DISEASES” (priority 2010, published 2012).

SMILES strings stand for the structures. pIC50: −log10 of the molar value.

The target of this experiment is T1, BACE1 (Homo sapiens, UniProt P56817).
T1 construct: endogenous in cells; host or cells: HEK-293 cells stably transfected with wild type APP695
T1 sequence (P56817 46-501): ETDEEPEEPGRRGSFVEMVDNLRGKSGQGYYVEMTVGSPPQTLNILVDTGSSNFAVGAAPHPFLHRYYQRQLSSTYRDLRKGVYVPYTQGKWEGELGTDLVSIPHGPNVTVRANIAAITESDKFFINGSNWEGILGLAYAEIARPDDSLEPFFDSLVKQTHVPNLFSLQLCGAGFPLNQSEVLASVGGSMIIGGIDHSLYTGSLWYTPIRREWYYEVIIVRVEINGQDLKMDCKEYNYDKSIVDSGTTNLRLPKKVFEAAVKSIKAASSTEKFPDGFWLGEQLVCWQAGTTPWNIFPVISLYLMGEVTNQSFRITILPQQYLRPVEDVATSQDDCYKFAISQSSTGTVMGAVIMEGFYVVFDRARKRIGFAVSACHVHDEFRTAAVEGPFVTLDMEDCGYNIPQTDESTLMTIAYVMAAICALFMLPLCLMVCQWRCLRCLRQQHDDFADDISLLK
Briefly: Cellular BACE1 Inhibition Assay (in vitro cellular Amyloidβ 1-40 production, HTRF immunoassay). The conditions noted are these: inhibition of Amyloidβ 1-40 production; HEK-293 cells stably transfected with wild type APP695; 48 hours incubation; single assay or mean of multiple assays. The format is cell-based. How it is done: The BACE inhibition properties of the compounds of the invention may be determined by the following in vitro cellular Amyloidβ 1-40 production assay.
Inhibition of Amyloidβ 1-40 production was determined by incubating cells with compound for 48 hours and quantifying the level of Amyloidβ 1-40 using an homogeneous time-resolved fluorescence (“HTRF”) immunoassay.
Materials and Methods: HEK-293 cells stably transfected with a DNA construct containing the coding sequence for the wild type APP695 sequence were grown in Dulbecco's Modified Eagle Medium (“DMEM”) supplemented with 10% fetal bovine serum, penicillin/streptomycin and 150 μg/mL G418. Cells were plated in 96-well plates at 35,000 cells/well and allowed to attach for 8-12 hours. Media was changed to DMEM supplemented with 10% fetal bovine serum, penicillin/streptomycin 15 minutes prior to compound addition. Diluted compounds were then added at a final concentration of 0.5% DMSO. After 48 hours, 4 μL of media from each well was added to a corresponding well of a 384 well plate (Perkin Elmer Cat#6008280) containing the HTRF reagents. HTRF reagents were obtained from the CisBio Amyloidβ 1-40 peptide assay kit (Cat# 62B40PEC) and were prepared as follows anti-peptide β (1-40)-Cryptate and anti-peptide β (1-40)-XL655 were stored in 2 plate aliquots at −80° C. Diluent and Reconstitution buffer were stored at 4° C. Aliquots of the two antibodies were diluted 1:100 with Reconstitution buffer, and this mixture was diluted 1:2 with Diluent. 12 μL of the reagent mixture was added to the required wells of the 384 well assay plate. The assay plate was incubated at 4° C. for 17 hours and then analyzed for fluorescence at 665 and 620 nm. The reported IC50 below may be from a single assay or the mean of multiple assays.
As to `CN1C(=O)C2(N=C1N)c1cc(-c3cccc(Cl)c3)ccc1OC1CC(F)(F)CCC12` (stereo not shown) [Example 35, 2-amino-7′-(3-chlorophenyl)-3′,3′-difluoro-1-methyl-1′,2′,3′,4′,4a′,9a′-hexahydrospiro[imidazole-4,9′-xanthen]-5(1H)-one], the pIC50 was 6.57. As for `CN1C(=O)C2(N=C1N)c1cc(-c3cccc(OC(F)F)c3)ccc1OC1CC(F)(F)CCC12` (stereo not shown) [Example 36, 2-amino-7′-(3-(difluoromethoxy)phenyl)-3′,3′-difluoro-1-methyl-1′,2′,3′,4′,4a′,9a′-hexahydrospiro[imidazole-4,9′-xanthen]-5(1H)-one], the figure is 6.66. Next, `CN1C(=O)C2(N=C1N)c1cc(-c3cccnc3F)ccc1OC1CCC(F)(F)CC12` (stereo not shown) [Example 41, 2-amino-2′,2′-difluoro-7′-(2-fluoropyridin-3-yl)-1-methyl-1′,2′,3′,4′,4a′,9a′-hexahydrospiro[imidazole-4,9′-xanthen]-5(1H)-one]: 7.38; `CN1C(=O)C2(N=C1N)c1cc(-c3cncc(Cl)c3)ccc1C[C@H]1CCOC[C@@H]12` (stereo partly drawn) [Example 69, (4aS,10aS)-2′-amino-8-(5-chloropyridin-3-yl)-1′-methyl-1,3,4,4a,5,10a-hexahydrospiro[benzo[g]isochromene-10,4′-imidazol]-5′(1′H)-one]: 9.10.

The molecule `CN1C(=O)[C@]2(N=C1N)c1cc(-c3cncc(Cl)c3)ccc1O[C@H]1CCCO[C@@H]12` [Example 78, (4S,4a′S,10a′R)-2-amino-8′-(5-chloropyridin-3-yl)-1-methyl-3′,4′,4a′,10a′-tetrahydro-2′H-spiro[imidazole-4,10′-pyrano[3,2-b]chromen]-5(1H)-one] gave a pIC50 of 8.82. This pIC50 lies 0.28 log units lower than the previous one. As for `CN1C(=O)[C@]2(N=C1N)c1cc(-c3cncc(C#N)c3)ccc1O[C@H]1CCCO[C@@H]12` [Example 79, 5-((4S,4a′S,10a′R)-2-amino-1-methyl-5-oxo-1,3′,4′,4a′,5,10a′-hexahydro-2′H-spiro[imidazole-4,10′-pyrano[3,2-b]chromen]-8′-yl)nicotinonitrile], the figure is 8.37. The molecule `CN1C(=O)[C@]2(N=C1N)c1cc(-c3cncc(C#N)c3)ccc1O[C@H]1CCCO[C@@]12C` [Example 86, 5-((4S,4a′S,10a′R)-2-amino-1,10a′-dimethyl-5-oxo-1,3′,4′,4a′,5,10a′-hexahydro-2′H-spiro[imidazole-4,10′-pyrano[3,2-b]chromen]-8′-yl)nicotinonitrile] had a pIC50 of 8.34. Consider `CN1C(=O)C2(N=C1N)c1cc(-c3cccnc3F)ccc1O[C@H]1CC(O)CC[C@@H]12` (stereo partly shown) [Example 96, (4a′S,9a′R)-2-amino-7′-(2-fluoropyridin-3-yl)-3′-hydroxy-1-methyl-1′,2′,3′,4′,4a′,9a′-hexahydrospiro[imidazole-4,9′-xanthen]-5(1H)-one], for which the pIC50 is 8.41.

`CN1C(=O)[C@]2(N=C1N)c1cc(-c3cccnc3F)ccc1O[C@H]1CCOCC12F` (stereo partly drawn) [Example 99, (4R,4a′S)-2-amino-10a′-fluoro-8′-(2-fluoropyridin-3-yl)-1-methyl-3′,4′,4a′,10a′-tetrahydro-1′H-spiro[imidazole-4,10′-pyrano[4,3-b]chromen]-5(1H)-one] gave a pIC50 of 6.62. Next, `COc1ccc2c(c1)C1(N=C(N)N(C)C1=O)[C@H]1COCC[C@@H]1C2` (stereo partly drawn) [Example 107, (4aS,10aS)-2′-amino-8-methoxy-1′-methyl-1,3,4,4a,5,10a-hexahydrospiro[benzo[g]isochromene-10,4′-imidazol]-5′(1′H)-one]: 6.10.
